The source of these data is patent publication US20060228347A1, “Antitumor agent and dnase” (Susumu SUNAGA and SUNNYVALE COMPANY, priority 2005, published 2006).

In brackets after ≈: the same amount, converted by molar mass.

The subject of data set [1] is MKN-28 cell. Description: Appearance of mitotic (round) cells after colcemid treatment. The format is cell-based, human. The procedure: (§1) A synthetic colchicine, colcemid (J. Radiat. Res., 14, 258-270, 1971) was used to prepare the M-phase cell. The optimum conditions for obtaining the living M-phase cell, and the conditions for evaluation the activity of inhibiting a cell proliferation by the MTT method were examined.
(§2) More particularly, cells were cultivated in a 25-cm^2 culture flask (Falcon, 3014, 50 mL) for 3 days. After the mono-layered cells were washed, a growth medium supplemented with 0.025 μg/mL of colcemid (Nakarai, 09356-74) was added, and incubated at 37° C. for 6 hours. After the cells were washed gently, the culture flask was gently shaken to collect cells removed from the bottom of the flask. The collected cells were washed with the medium (GM) by centrifugation to remove colcemid. The washed cells were suspended in the growth medium and incubated.
(§3) The incubated cells were observed under a microscope at intervals of an hour; an appearance of mitotic cells is shown in Table 19. The appearance of mitotic cells was judged by an appearance of round cells as an index. Although almost cultured cells adhere to the glass surface and are thinly spread, mitotic cells become round and tend to leave the glass surface. Therefore, an appearance of round cells which tend to leave the monolayer was used as the index.
(§4) In Table 19, “−” means that the round cells appeared at a percentage of 0% with respect to the whole cells, “±” means that the round cells appeared at a percentage less than 5%, and “+” means that the round cells appeared at a percentage from 5% to less than 30%. The numbers in parentheses of “Round cells/flask” are numbers of positive cells strained by trypan blue.

Data set [2] relates to MRC-5 cell. Described as above. It counts as cell-based, human. The procedure: as §1, §2, §3, §4
Data set [3] has as its system MKN-28 cell. Nature of the data set: MTT method, cell proliferation inhibition by cell fractions. It counts as cell-based. To be noted: Homo sapiens. The procedure:
(§5) More particularly, cells for evaluation, i.e., a cancer cell line (for example, an MKN-28 cell or a HeLa cell) and a normal cell (for example, an MRC-5 cell or an HEF cell) are prepared as cell suspensions. An appropriately diluted series (for example, 1/2, 1/4, 1/8, 1/16, and 1/32) of a DNase solution are poured into each well of a microplate. After each cell suspension is further added into each well, the cells are cultivated for a predetermined period (for example, 4 days). After the cultivation, an MTT [3-(4,5-dimethylthiazol-2-yl)-2,5-diphenyltetrazolium bromide; Sigma chemical Co.] solution is added into each well. After an incubation for a predetermined period (for example, at 37° C. for 4 hours), a culture supernatant is removed from each well, and then an MTT formazan elution liquid [acidified isopropanol containing 10% (V/V) Triton X-100] is added into each well. […] The IC50 value is indicated as a dilution of a test liquid or a concentration (for example, μg/mL) of a test drug which can inhibit a proliferation of a control cell (without an antitumor agent) to 50%. When the dilution is high, or when the drug concentration is low, it can be judged that the drug (substance) tested has a high activity.
(§6) As cells for evaluation, the MKN-28 cell and the HeLa cell were used as cancer cell lines, and the MRC-5 cell was used as a normal cell. After each cell line was cultured for 3 days, cells were treated with trypsin, and dispersed cells were washed with PBS by centrifugation. Washed cells were suspended in a Dulbecco's modified Eagle's MEM medium containing 8% fetal calf serum (hereinafter referred to as GM), and counted with a hemocytometer. Each cell suspension was adjusted with the GM to cell densities of 5000 cells/50 μL and 2500 cells/50 μL (cancer cell lines) or 10000 cells/50 μL and 5000 cells/50 μL (MRC-5 cell).
(§7) To each well in a 96-well flat-bottomed plate, diluted series (undiluted, 1/2, 1/4, 1/8, 1/16, and 1/32; 50 μL/well) of each centrifugal supernatant or centrifugal pellet prepared in Example 1 were added. Further, each cell suspension was added to each well, and the plate was incubated at 37° C. in a CO2 incubator. After 3 or 4 days from the beginning of the incubation, 20 μL/well of an MTT solution was added to each well, and the plate was incubated at 37° C. for 3 hours. The culture supernatant was removed from each well, and 100 μL of an MTT formazan elution liquid was added to each well.
(§8) As a control, PBS was used instead of the diluted series of each centrifugal supernatant or centrifugal pellet. For comparison, 5-fold-diluted series (100 μg/mL, 20 μg/mL, 4 μg/mL, 0.8 μg/mL, 0.16 μg/mL, and 0.032 μg/mL) of 5-fluorouracil (5-FU) were used instead of the diluted series of each centrifugal supernatant or centrifugal pellet.
(§9) The IC50 values when the cancer cell line MKN-28 was used as the cell for evaluation and the centrifugal supernatant and the centrifugal pellet derived from the MKN-28 cell were used as the cell fraction are shown in Table 6. Each IC50 value shown in Table 6 (or Tables 7 to 10 described below) is an average of plural (two to four) values. Each IC50 value is shown as a dilution (i.e., relative value) of a test liquid [or a concentration of a test drug (μg/mL for 5-FU)] which can inhibit a proliferation of a control cell (without an antitumor agent) to 50%.
For orientation: Tetrazolium assays rely on reduction of a dye to a coloured formazan, in cell work by metabolically active cells.

In data set [4] the test system is MRC-5 cell. Described as above. The format is cell-based. To be noted: Homo sapiens. The procedure:
as §5, §6, §7, §8, §9

Another data set concerns HeLa cell. Described as above. To be noted: Homo sapiens. The format is cell-based. How it is done:
as §5, §6, §7, §8, §9

With `CN[C@H]1CCc2cc(OC)c(OC)c(OC)c2-c2ccc(OC)c(=O)cc21` [colcemid], the results for the Round cells/flask in the data set on MKN-28 cell [1] (MKN-28) and in the data set on MRC-5 cell [2] (MRC-5) were 93000 and 153000, respectively. In addition, the “yield of colcemid-treated cells (number of cells after the treatment/number of cells before the treatment)” value in the data set on MKN-28 cell [1] (MKN-28) amounted to 1.4%; in the data set on MRC-5 cell [2] (MRC-5) it was 29%. The “Appearance of round cells” value in the data set with MKN-28 cell [1] (MKN-28, 1 hr, 0.025 μg/mL colcemid) is on record as “− (the round cells appeared at a percentage of 0% with respect to the whole cells)”; with MKN-28 cell [1] (MKN-28, 2 hr), “± (the round cells appeared at a percentage less than 5%)”; with MKN-28 cell [1] (MKN-28, 3 hr) it was “+ (the round cells appeared at a percentage from 5% to less than 30%)”; in the data set on MKN-28 cell [1] (MKN-28, 4 hr) it was “+ (the round cells appeared at a percentage from 5% to less than 30%)”; in the data set on MKN-28 cell [1] (MKN-28, 5 hr), “+ (the round cells appeared at a percentage from 5% to less than 30%)”; in the data set on MRC-5 cell [2] (MRC-5, 1 hr, 0.025 μg/mL colcemid), “− (the round cells appeared at a percentage of 0% with respect to the whole cells)”. Besides, the “Appearance of round cells” value in the data set on MRC-5 cell [2] (MRC-5, 2 hr) is on record as “± (the round cells appeared at a percentage less than 5%)”; with MRC-5 cell [2] (MRC-5, 3 hr), “+ (the round cells appeared at a percentage from 5% to less than 30%)”; with MRC-5 cell [2] (MRC-5, 4 hr), “+ (the round cells appeared at a percentage from 5% to less than 30%)”; in the data set on MRC-5 cell [2] (MRC-5, 5 hr), “+ (the round cells appeared at a percentage from 5% to less than 30%)”. Moreover, the “Round cells/flask: positive cells strained by trypan blue” value in the data set on MKN-28 cell [1] (MKN-28, number in parentheses) was 0; in the data set on MRC-5 cell [2] (MRC-5, number in parentheses) it was 0.
One may read the IC50 as the concentration that inhibits the measured activity by half. Higher therefore signals a need for much substance. Take `O=c1[nH]cc(F)c(=O)[nH]1` [5-FU, 5-fluorouracil]: the IC50 is 4.6 µg/mL (≈ 35.4 µM) in the data set on MKN-28 cell [3] (MKN-28, 72 h, Table 6, MKN (3 days), 2500 cells/well); 5.9 µg/mL (≈ 45.4 µM) in the data set with MKN-28 cell [3] (MKN-28, 72 h, Table 6, MKN (3 days), 5000 cells/well); 4.6 µg/mL (≈ 35.4 µM) in the data set on MKN-28 cell [3] (MKN-28, 72 h, Table 9, 3-day cultivation, MKN, 2500 cells/well); 6 µg/mL (≈ 46.1 µM) in the data set with MKN-28 cell [3] (MKN-28, 72 h, Table 9, 3-day cultivation, MKN, 5000 cells/well); 3.7 µg/mL (≈ 28.4 µM) in the data set with MKN-28 cell [3] (MKN-28, 96 h, Table 6, MKN (4 days), 2500 cells/well); 14.8 µg/mL (≈ 114 µM) in the data set on MKN-28 cell [3] (MKN-28, 96 h, Table 6, MKN (4 days), 5000 cells/well). For the same compound, the half-inhibitory concentration (IC50) with MKN-28 cell [3] (MKN-28, 96 h, Table 10, 4-day cultivation, MKN, 2500 cells/well) is 4.7 µg/mL (≈ 36.1 µM); with MKN-28 cell [3] (MKN-28, 96 h, Table 10, 4-day cultivation, MKN, 5000 cells/well), 11.6 µg/mL (≈ 89.2 µM); in the data set with MRC-5 cell [4] (MRC5, 72 h, Table 8, MRC (3 days), 5000 cells/well), > 100 µg/mL; in the data set on MRC-5 cell [4] (MRC5, 72 h, Table 8, MRC (3 days), 10000 cells/well), > 100 µg/mL; with MRC-5 cell [4] (MRC5, 72 h, Table 9, 3-day cultivation, MRC, 5000 cells/well), > 100 µg/mL; with MRC-5 cell [4] (MRC5, 72 h, Table 9, 3-day cultivation, MRC, 10000 cells/well), > 100 µg/mL. Moreover, the IC50 is 92 µg/mL (≈ 707 µM) in the data set with MRC-5 cell [4] (MRC5, 96 h, Table 8, MRC (4 days), 5000 cells/well); > 100 µg/mL in the data set on MRC-5 cell [4] (MRC5, 96 h, Table 8, MRC (4 days), 10000 cells/well); 92 µg/mL (≈ 707 µM) in the data set with MRC-5 cell [4] (MRC5, 96 h, Table 10, 4-day cultivation, MRC, 5000 cells/well); > 100 µg/mL in the data set on MRC-5 cell [4] (MRC5, 96 h, Table 10, 4-day cultivation, MRC, 10000 cells/well); 5 µg/mL (≈ 38.4 µM) in the data set with HeLa cell (72 h, Table 7, HeLa (3 days), 2500 cells/well); 7.3 µg/mL (≈ 56.1 µM) with HeLa cell (72 h, Table 7, HeLa (3 days), 5000 cells/well). Further, the IC50 in the data set on HeLa cell (72 h, Table 9, 3-day cultivation, 2500 cells/well) was 7 µg/mL (≈ 53.8 µM); with HeLa cell (72 h, Table 9, 3-day cultivation, 5000 cells/well), 12 µg/mL (≈ 92.3 µM); with HeLa cell (96 h, Table 7, HeLa (4 days), 2500 cells/well) it was 3.6 µg/mL (≈ 27.7 µM); in the data set with HeLa cell (96 h, Table 7, HeLa (4 days), 5000 cells/well), 3.6 µg/mL (≈ 27.7 µM); in the data set on HeLa cell (96 h, Table 10, 4-day cultivation, 2500 cells/well) it was 6.2 µg/mL (≈ 47.7 µM); in the data set on HeLa cell (96 h, Table 10, 4-day cultivation, 5000 cells/well), 13 µg/mL (≈ 99.9 µM).
